Series [1] has as its target T1, A3G:RNA complexes (Homo sapiens, UniProt Q9HC16).
T1 construct: polyhistidine (C); made in house; host or cells: Baculovirus-infected Sf9 insect cells
Nature of the series: EMSA of A3G:RNA complexes assembled on radiolabeled RNA (disaggregation of HMM). In kind it is binding. The settings on record: range of concentrations. On the procedure:
The Electrophoretic Gel Mobility Shift Assay (EMSA) provides a visual and quantitative measure of the efficiency of A3G-RNA complex formation. EMSA was used initially to determine the optimum buffer conditions, molar ratio of A3G to RNA as well as the temperature and the duration of the complex assembly reaction.
The four compounds depicted in FIG. 7 were evaluated for their ability to disaggregate A3G:RNA complexes by treating A3G:RNA complexes assembled on radiolabeled RNA with each chemistry over a range of concentrations and then evaluated for size reduction of HMM by EMSA.

Series [2] deals with T2, A3G (Homo sapiens, UniProt Q9HC16).
T2 construct: polyhistidine (C); made in house; host or cells: Baculovirus-infected Sf9 insect cells
T2 sequence (Q9HC16 whole entry): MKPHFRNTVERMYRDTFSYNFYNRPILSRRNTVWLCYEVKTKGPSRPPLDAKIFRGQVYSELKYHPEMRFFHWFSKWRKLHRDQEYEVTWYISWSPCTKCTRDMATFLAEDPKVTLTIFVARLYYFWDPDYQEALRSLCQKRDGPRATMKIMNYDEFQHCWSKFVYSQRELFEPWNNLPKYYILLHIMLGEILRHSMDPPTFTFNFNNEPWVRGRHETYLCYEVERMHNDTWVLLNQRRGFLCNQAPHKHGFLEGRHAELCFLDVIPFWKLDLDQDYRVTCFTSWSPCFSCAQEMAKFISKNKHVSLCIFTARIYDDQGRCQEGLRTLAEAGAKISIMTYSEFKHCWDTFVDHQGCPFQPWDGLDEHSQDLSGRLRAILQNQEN
In words: In vitro DNA deaminase activity of purified A3G. The series is classed as biochemical. The following applies: purified A3G treated at varying concentrations.

The target of series [3] is T3, HMM A3G (A3G:RNA complexes assembled in cells) (Homo sapiens, UniProt Q9HC16).
T3 construct: expressed in transfected cells; host or cells: TZM-bl cells stably transfected with A3G cDNA (TZM-bl-A3G); The HMM fraction was isolated from cell extracts by size exclusion chromatography
T3 sequence (Q9HC16 whole entry, one chain of several): as the sequence (Q9HC16 whole entry) above
Nature of the series: In vitro deaminase activity of HMM isolated from TZM-bl-A3G cells. The series is classed as biochemical. The following applies: 20 μM. The method, then: Experiments were performed to directly test whether the compounds could activate antiviral activity from HMM in living cells. For this a cell line that expressed A3G as HMM was created. TZM-bl reporter cells were transfected with A3G cDNA and a cell line with stable expression of A3G was selected (TZM-bl-A3G). To verify HMM A3G, cell extracts were prepared from TZM-bl-A3G cells and fractionated by size exclusion chromatography. […] Isolated HMM had low levels of in vitro deaminase activity (4% dC to dU) that could be activated 10-fold by RNase digestion (FIG. 12, top panel). Treatment of HMM with 20 μM Clonidine and Altanserin activated A3G deaminase activity 6- and 8-fold respectively compared to untreated HMM (FIG. 12, bottom panel).

In series [4] the test system is pseudotyped HIV in TZM-bl-A3G cells. In words: microbe, parasite or virus in culture. In kind it is cell-based. From the text: (§1) Viral particles were harvested from media of producer cells, normalized based on p24 content and equal number of virus particles were used to infect wild type TZM-bl or TZM-bl-A3G cells. […] However, HIV replication and, consequently Tat expression, are anticipated to be inhibited if dissolution of HMM by A3G activators was able to stimulate host defense.

The test system of series [5] is pseudotyped HIV in TZM-bl cells. Nature of the series: Single round infectivity of pseudotyped HIV in wild type TZM-bl cells. The settings on record: viruses +/- Vif. The series is classed as cell-based.
From the text: as §1

The target of series [6] is APOBEC3G (hA3G) (Homo sapiens, UniProt Q9HC16 Q9HC16:1-384). In words: EMSA; Kd stated for optimal AU-rich RNA with G or C every fourth nucleotide; 99 nt RNA selected for the assay. The following applies: tags: C-terminal polyhistidine tag. On the procedure: Experiments were performed to determine what length and sequence of nonspecific RNA would yield the most efficient formation of A3G:RNA complexes. A3G was expressed using the Baculovirus system and purified by nickel affinity chromatography. RNAs varying in GC and AU content were synthesized chemically or transcribed in vitro in lengths varying from 10 to 99 nucleotides (nt). A3G:RNA complexes were assembled in vitro with these RNAs over a range of A3G concentrations and the yield of small and large complexes determined by electrophoretic mobility shift on native gels (EMSA). […] A 99 nt RNA was selected for the HTS assay. The RNA used for the following data had the sequence: […]
APOBEC3G (hA3G), sequence (Q9HC16 whole entry, one chain of several): as the sequence (Q9HC16 whole entry) above
A general note: In EMSA bound probe runs differently from free probe, usually more slowly.

Where only a bound is given, the exact number is not on record here.

T1 sequence (Q9HC16 whole entry, one chain of several): as the sequence (Q9HC16 whole entry) above

As usually defined, the inhibition is the drop in the measured response relative to a control, in per cent. As for `O=C(c1ccc(F)cc1)C1CCN(CCn2c(=S)[nH]c3ccccc3c2=O)CC1` [Altanserin], the “dissolution of A3G:RNA aggregates (HMM) by EMSA” value in series [1] is recorded as “completely dissociate RNA from a portion of the A3G complexes”. For the same molecule, the “inhibition of A3G deaminase activity” value in series [2] was “none of the hits inhibited A3G deaminase activity”. In series [3], the “activation of A3G deaminase activity compared to untreated HMM” value was 8 fold. For the same molecule, the inhibition at 20 µM in series [4] (Human immunodeficiency virus 1, read-out: inhibition of viral infectivity) is above 40%. In addition, the “antiviral activity in TZM-bl-A3G cells” value in series [4] (viruses +/- Vif) was “induced antiviral activity in TZM-bl-A3G cells”. The “antiviral activity in TZM-bl cells” value in series [5] is given as “not in TZM-bl cells”.
On to `Clc1cccc(Cl)c1N=C1NCCN1` [Clonidine], for which, in series [1], the “dissolution of A3G:RNA aggregates (HMM) by EMSA” value is “dose-dependent dissolution of A3G:RNA aggregates to faster migrating lower molecular mass (LMM) complexes”. Further, the “inhibition of A3G deaminase activity” value in series [2] is “none of the hits inhibited A3G deaminase activity”. In series [3], the “activation of A3G deaminase activity compared to untreated HMM” value amounted to 6 fold. The “antiviral activity in TZM-bl cells” value in series [5] is reported as “not in TZM-bl cells”.

B1: 99 nt nonspecific AU-rich RNA (ssRNA)
RNA: GGGAACAAAAGCUGGGUACCGGGCCCCCCCUCGAGGUCGAUGCAGACAUAUAUGAUACAAUUUGAUCAGUAUAUUAAAGAUAGUUAUGAUUUACAAGCU
One may read the Kd as the constant that tells how readily two partners part at equilibrium. As to B1, the Kd in series [6] is 30 nM.

For the origin of these results see patent publication US20130123285A1, “Compositions and Methods for Targeting A3G:RNA Complexes” (UNIVERSITY OF ROCHESTER, priority 2010, published 2013).
